The source of these data is PMC5342526, “Identification of Bisindolylmaleimide IX as a potential agent to treat drug-resistant BCR-ABL positive leukemia” (Oncotarget, 2016).

Read-outs that look alike come from different tables or passages of the source.

Data set [1] relates to p53 in primary MEFs. Nature of the data set: p53 protein level by western blot (screen). Background: In western blotting, separated proteins are transferred to a membrane and probed.
Procedure: Cells were lysed in TNEN buffer (50 mM Tris, 150 mM NaCl, 5 mM EDTA, 0.5% NP-40, and 0.1% Triton X-100) supplemented with 1 mM NaF, Na2VO3, 1 mM PMSF, and 1 μg/ml of aprotonin, leupeptin, and pepstatin A. Protein concentrations were determined using a Bio-Rad assay. Proteins were resolved by SDS-PAGE and transferred to polyvinylidene difluoride membranes (Millipore).
The test system of data set [2] is γH2AX foci in MEFs. Nature of the data set: γH2AX DNA damage foci, immunofluorescent staining. Format: cell-based, mouse. The settings on record: 2.5 μM, 4 hrs. As to the method:
MEFs or HCT116 cells were cultured on cover slips while Baf3 cells were cultured on slides coated by 0.1mg/ml poly-L-lysine, washed with phosphate-buffered saline (PBS) twice, and then fixed in 4% paraformaldehyde (PFA), which were permeabilized with 0.1% Triton X in PBS for 30 minutes at room temperature. The primary antibodies were diluted in PBS with 1% BSA (1:200). The slides were blocked (1% BSA in PBS) for 60 minutes at room temperature, incubated with primary antibodies overnight at 4°C, and followed by secondary antibody incubation for 60 min at RT. The slides were then mounted and observed under confocal microscope (Leica, Germany). Antibodies against γH2AX were from Bethyl Corporation.

For data set [3], the system named is B-Raf in BCR-ABL positive BaF3 cells. Nature of the data set: B-Raf phosphorylation, western blot. Format: cell-based, murine. As to the method: Activation and expression of Erk, Mek1, and Raf were determined by western blot. B. Inhibition of Erk decreased the cell survival rates in BaF3 cells expressing BCR-ABL compared to control cells. […] C. […] N=3. Right panel: Western blot results showing that B-Raf was knocked down in these cells.

The subject of data set [4] is BCR-ABL BaF3 cells.
Data set [5] relates to K562, HL-60, MCF7, U251, AGS, MGC-803, U2OS and Saos-2 cells. Format: cell-based. The text has this:
The reference wavelength was 630 nm.
www.impactjournals.com/oncotarget/ Oncotarget, Supplementary Materials 2016 […]

The test system of data set [6] is tumors derived from HCT116. Nature of the data set: HCT116 carcinoma xenograft in nude mice. Format: in vivo, mouse. The note with it: 2.5mg/kg for 7 days. As to the method:
Male BALB/cASlac-nude mice (4-week-old) were purchased from Shanghai Slac Laboratory Animal C. LTD. The mice were kept in the SPF mouse facility for 1 week before being inoculated with HCT116 cells. HCT116 cells were harvested by trypsinization, counted and resuspended in PBS at the concentration of 5×10^7/ml. We injected subcutaneously 3×10^6 cells to BALB/cASlac nude mice's back. After 2 weeks, the mice were divided into 3 groups (6 mice per group) and were treated with 5-Iodotubercidin (Itu), Bisindolylmaleimide IX or solvent (PBS). The mice were weighed and the size of tumor measured. The length (L) and width (W) of the tumor were measured with a digital caliper and expressed as tumor volume (0.5L×W^2, mm^3).

For data set [7], the system named is K562 cells. Nature of the data set: Wst-1 cell survival assay. The note with it: K562, Wst-1.
Procedure: We then evaluated the cytotoxic effect of Bisindolylmaleimide IX in MEFs and HCT116 cells. Different doses of Bisindolylmaleimide IX were applied to the cell cultures and cell survival rates and IC50 were determined with Wst-1 assay.
To measure cell survival rates after Bisindolylmaleimide IX treatment, cells were plated at 1×10^4 in 96 well plates and cultured for overnight, which were then treated with Bisindolylmaleimide IX for 48 hrs. Cell proliferation reagent WST-1 (Roche) was added to each well and was further incubated for 4 hrs at 37°C. The absorbance was measured against a control using microplate reader at 440 nm. The reference wavelength was 630 nm.

With `CN(C)CCCn1cc(C2=C(c3c[nH]c4ccccc34)C(=O)NC2=O)c2ccccc21` [Bisindolylmaleimide I], in data set [1], the p53 protein up-regulation entry is on record as “failed to up-regulate p53 in MEFs”. The γH2AX foci formation result in data set [2] is recorded as “minimal numbers of foci”. In the case of `CCCCCCCCCCCCCCCC(=O)OC(CC(=O)O)C[N+](C)(C)C.[Cl-]` (racemic) [Palmitoyl-DL-carnitine Cl], the p53 protein up-regulation entry in data set [1] is “failed to up-regulate p53 in MEFs”. Still for that read-out and setting: the value for `CC(=O)c1c(O)c(C)c(O)c(Cc2c(O)c3c(c(C(=O)/C=C/c4ccccc4)c2O)OC(C)(C)C=C3)c1O` [Rottlerin] was “failed to up-regulate p53 in MEFs”. Consider `CCCCCCCCCCCCC/C=C/[C@@H](O)[C@@H](N)CO` [Sphingosine], for which the p53 protein up-regulation result in data set [1] is “failed to up-regulate p53 in MEFs”. For the compound `COc1cc([C@@H]2c3cc4c(cc3[C@@H](O[C@@H]3O[C@@H]5CO[C@@H](c6cccs6)O[C@H]5[C@H](O)[C@H]3O)[C@H]3COC(=O)[C@H]23)OCO4)cc(OC)c1O` [teniposide], in data set [3], the “phosphorylation of B-Raf” value is recorded as “did not affect the phosphorylation of B-Raf”. The “survival of BCR-ABL positive BaF3 cells compared with control cells” value in data set [4] (24 hrs, Wst-1) is “increased survival”.

`N#CC(=C(/N)Sc1ccccc1N)/C(C#N)=C(/N)Sc1ccccc1N` [U0126]: the “cell death rates in BCR-ABL expressing BaF3 cells versus control cells” value in data set [4] (inhibition of Erk) is listed as “increased cell death rates”. For the compound `CC1CNCCN1S(=O)(=O)c1cccc2cnccc12` (stereo not drawn) [H-7], in data set [1], the p53 protein up-regulation result is “failed to up-regulate p53 in MEFs”.

In the case of `COc1cccc2c1C(=O)c1c(O)c3c(c(O)c1C2=O)C[C@@](O)(C(=O)CO)C[C@@H]3O[C@H]1C[C@H](N)[C@H](O)[C@H](C)O1` [doxorubicin], the “phosphorylation of B-Raf” value in data set [3] is listed as “did not affect the phosphorylation of B-Raf”. For `COCc1cc(O)c(O)c(O)c1-c1c(COC)cc(O)c(O)c1O` [HBDDE], the p53 protein up-regulation result in data set [1] is on record as “failed to up-regulate p53 in MEFs”. For `Cc1ccc(NC(=O)c2ccc(CN3CCN(C)CC3)cc2)cc1Nc1nccc(-c2cccnc2)n1` [Imatinib], in data set [5], the “cytotoxic effects across cell lines (in words)” value is “specificity to BCR-ABL positive cells”. As to `NCCNS(=O)(=O)c1cccc2cnccc12` [H-9], the p53 protein up-regulation result in data set [1] is listed as “failed to up-regulate p53 in MEFs”. As for `Nc1ncnc2c1c(I)cn2[C@@H]1O[C@H](CO)[C@@H](O)[C@H]1O` [5-Iodotubercidin], the p53 protein up-regulation entry in data set [1] is given as “up-regulate p53 at the protein levels”. In addition, in data set [6], the tumor growth result is “greatly inhibited tumor growth”. Regarding `CN[C@@H]1C[C@H]2O[C@@](C)([C@@H]1OC)n1c3ccccc3c3c4c(c5c6ccccc6n2c5c31)C(=O)NC4` [staurosporine], the p53 protein up-regulation result in data set [1] is recorded as “failed to up-regulate p53 in MEFs”. In addition, the “cytotoxic effects across cell lines (in words)” value in data set [5] (24 hrs, Wst-1) is given as “strong cytotoxic effects in almost all these cell lines”. Regarding `Cn1cc(C2=C(c3cn(C4CCN(Cc5ccccn5)CC4)c4ccccc34)C(=O)NC2=O)c2ccccc21` [Enzastaurin], in data set [7], the “cytotoxicity (in words)” value is “modest cytotoxic effect”. Further, the γH2AX foci formation result in data set [2] is recorded as “minimal numbers of foci”. Besides, in data set [4] (BCR-ABL BaF3, 24 hrs, compared among bisindolylmaleimide derivatives), the “cytotoxic effect (in words)” value is “modest cytotoxic effect”. For `Cc1cc(O)c2c(=O)c3c(O)cc(O)c4c5c(O)cc(O)c6c(=O)c7c(O)cc(C)c8c1c2c(c34)c(c78)c65` [Hypericin], the p53 protein up-regulation result in data set [1] is on record as “failed to up-regulate p53 in MEFs”.
